Earlier results, collected in patent publication US20100166856A1, “PHARMACEUTICAL COMPOSITION IN THE FORM OF COATED MICROSPHERES FOR THE MODIFIED RELEASE OF A MUSCLE RELAXANT AND AN NSAID” (LABORATORIOS SENOSIAIN S.A. DE C.V., priority 2006, published 2010).
Each block holds one molecule with its values, some of them ahead of it.

Columns and labels:
[1] = after administration
[2] = 22.5 mg of meloxicam
metabolism of tizanidine = details: combination of tizanidine with rofecoxib

time at which maximum plasma concentration is reached [1]: 4 to 5 h
time of second concentration peak ([1]; indicates gastrointestinal re-circulation): 12 to 14 h
SMILES: Cc1cnc(NC(=O)C2=C(O)c3ccccc3S(=O)(=O)N2C)s1 [meloxicam]
effect of higher dose [2]: only an increase in gastrointestinal adverse effect was observed

pharmacokinetic interaction with tizanidine (metabolism of tizanidine): inhibits the metabolism of tizanidine
SMILES: CS(=O)(=O)c1ccc(C2=C(c3ccccc3)C(=O)OC2)cc1 [rofecoxib]

half-life time (after oral administration): approximately 2.5 hours
excretion in feces (in vivo): about 20%
excretion in urine (in vivo): 60%
SMILES: Clc1ccc2nsnc2c1NC1=NCCN1 [tizanidine]
